We go through four compounds from patent US12568998B2, “Flavouring composition with balanced taste profile” (SYMRISE AG, priority 2021, dated 2026).

Assay [1] in a line: Sensory profiling of ice tea preparation, HT/HC ratios 1:1 and 1:6 (Example 4). The settings on record: tea base, 5 wt.-% HFCS, 0.18 wt.-% citric acid, line scale (10 cm). The method, then: In order to further validate the insights derived from Example 1 and 2, the interaction and main effects of HT and HC are to be shown in a setup in which a drinkable preparation with a tea base, 0.05 wt.-% lemon flavor, 5 wt.-% high fructose corn syrup, 0.18 wt.-% citric acid and 0.03 wt.-% trisodium citrate was prepared. That preparation was divided into four samples by varying the dosage of HT and HC resulting in one sample containing no HT and no HC (control), containing 5 or 3 ppm HT and no HC (HT main effect), containing no HT and 5 or 18 ppm HC (HC main effect) and, respectively, containing 5 or 3 ppm HT and or 18 ppm HC (HT×HC interaction effect). […] The final preparations were profiled by an expert panel consisting of seven educated panelists (two measurements). Different sensorial attributes (ice tea language with focus on sweetness) were assessed and scored on an unstructured line scale (10 cm) for its perceived intensity. The results of the testing are shown below in Table 4 and 5 as well as in FIG. 4 to FIG. 7.

A short description of assay [2]: Sensory profiling of ice tea preparation, HT/HC ratio 1:3.33 (Example 2). The settings on record: tea base, 4 wt.-% HFCS, 0.10 wt.-% citric acid, HT 3 ppm and/or HC 10 ppm; for Acidity / Balance / Bitter / Complexity / Fruity-Juicy / Long lasting / Off-Notes / Onset Sweetness / Overall Sweetness / Syrupy / Tea: line scale (10 cm). The method, then:
In order to further validate the insights derived from Example 1, the interaction and main effects of HT and HC are to be shown in a setup in which a drinkable preparation with a tea base, 0.05 wt.-% lemon flavor, 4 wt.-% high fructose corn syrup, 0.1 wt.-% citric acid and 0.03 wt.-% trisodium citrate was prepared. That preparation was divided into four samples by varying the dosage of HC and HT resulting in one sample containing no HC and no HT (control), containing 10 ppm HC and no HT (HC main effect), containing no HC and 3 ppm HT (HT main effect) and, respectively, containing 10 ppm HC and 3 ppm HT (HT×HC interaction effect). […] The final preparations were profiled by an expert panel consisting of ten educated panelists (two measurements). Different sensorial attributes (ice tea language with focus on sweetness) were assessed and scored on an unstructured line scale (10 cm) for its perceived intensity. The results of the testing are shown below in Table 2 as well as in FIG. 1 and FIG. 2.

The nature of assay [3]: Sensory descriptive analysis of ice tea prototypes, sweetness factor (Example 1). To be noted: HC 10 ppm and/or HT 3 ppm.
The nature of assay [4]: Dosing tests with an excess of hesperetin, sensory ranking (Example 3). The method, then:
A drinkable preparation with 7 wt.-% sucrose and 0.15 wt.-% citric acid was prepared. This preparation was used as a base composition for dosing tests with different dosing regimens of hesperetin dihydrochalcone and hesperetin. The different samples were evaluated by an expert panel consisting of five educated panelists and ranked on a scale from 0 to 9. The results of the testing are shown below in Table 3 as well as in FIG. 3.

The conditions of assay [5]: J. Chem. Senses 1979, 4(1), 35-47; cited from earlier work.
The mark [6] stands for this setting: Acesulfame K Ice tea Base, 60 ppm.
[7] abbreviates: HFCS Ice tea Base, 2 wt. % High Fructose corn sirup.
Where [8] appears, read: Invert Sugar Syrup Ice tea Base, 2 wt. % invert sugar syrup.
[9] abbreviates: Reb A Ice tea Base, 60 ppm rebaudioside A.
The mark [10] stands for this setting: Reb A/Reb D Ice tea Base, 60 ppm rebaudioside A/60 ppm rebaudioside D.
[11] abbreviates: Reb A/Reb M Ice tea Base, 60 ppm rebaudioside A/45 ppm rebaudioside M.
[12] abbreviates: Reb M/Reb D Ice tea Base, 45 ppm rebaudioside M/60 ppm rebaudioside D.
Where [13] appears, read: Sucralose Ice tea Base, 100 ppm sucralose.
The mark [14] stands for this setting: Sugar Free Ice tea Base, no added sugar/sweetener.

“Also recorded” adds a separate entry of the source.

With `COc1ccc(CCC(=O)c2c(O)cc(O)cc2O)cc1O` [HC, hesperetin dihydrochalcone], in assay [1] (HT 3 ppm and/or HC 18 ppm), the Acidity turned out to be 3.12, the Balance amounted to 3.66, the Bitter is on record as 1.94 and the Complexity turned out to be 4.58. Besides, in assay [1] (HT 3 ppm and/or HC 18 ppm), the Fruity-Juicy was 4.27, the Long lasting is 4.20, the Off-Notes amounted to 1.01 and the “Onset Sweetness” value is reported as 4.99. Moreover, in assay [1] (HT 3 ppm and/or HC 18 ppm), the “Overall Sweetness” value came to 5.60, the Syrupy is 4.32 and the Tea turned out to be 4.01. Moreover, in assay [1] (HT 5 ppm and/or HC 5 ppm), the Acidity is 3.46, the Balance is 3.68, the Bitter is 1.93 and the Complexity is given as 3.90. Moreover, in assay [1] (HT 5 ppm and/or HC 5 ppm), the Fruity-Juicy came out at 4.68, the Long lasting is 3.11, the Off-Notes is 0.70 and the “Onset Sweetness” value amounted to 4.19. Also, in assay [1] (HT 5 ppm and/or HC 5 ppm), the “Overall Sweetness” value was determined as 4.46, the Syrupy was determined as 3.96 and the Tea worked out at 4.11. Besides, in assay [2], the Remarks entry is on record as “lingering,; also recorded: sweetener”, the Acidity is reported as 3.22, the Balance was determined as 3.50 and the Bitter is listed as 2.58. Moreover, in assay [2], the Complexity came out at 3.62, the Fruity-Juicy amounted to 3.88, the Long lasting is 3.90 and the Off-Notes was 2.25. Moreover, in assay [2], the “Onset Sweetness” value is on record as 4.39, the “Overall Sweetness” value turned out to be 4.80, the Syrupy was 3.70 and the Tea was 4.08. Besides, in assay [3] (setting [6]), the “ANOVA (sweetness factor)” value is reported as −0.1. In addition, the “ANOVA (sweetness factor)” value in assay [3] (setting [7]) is on record as −0.9. Also, in assay [3] (setting [8]), the “ANOVA (sweetness factor)” value is reported as −1. The “ANOVA (sweetness factor)” value in assay [3] (setting [9]) is on record as −0.5. Besides, the “ANOVA (sweetness factor)” value in assay [3] (setting [10]) is −0.1. Besides, the “ANOVA (sweetness factor)” value in assay [3] (setting [11]) is 0. Moreover, in assay [3] (setting [12]), the “ANOVA (sweetness factor)” value is −0.3. Further, the “ANOVA (sweetness factor)” value in assay [3] (setting [13]) is reported as −0.8. In assay [3] (setting [14]), the “ANOVA (sweetness factor)” value is on record as −1.3.

Consider `COc1ccc([C@@H]2CC(=O)c3c(O)cc(O)cc3O2)cc1O` [HT, hesperetin], for which the “hesperetin concentration exhibiting off-tastes in the preparation” value in assay [4] is recorded as “more than 30 ppm”. Further, in assay [1] (HT 3 ppm and/or HC 18 ppm), the Acidity turned out to be 4.11, the Balance was found to be 3.24, the Bitter is reported as 2.21 and the Complexity was determined as 3.99. Besides, in assay [1] (HT 3 ppm and/or HC 18 ppm), the Fruity-Juicy came out at 4.19, the Long lasting came out at 2.61, the Off-Notes is listed as 0.77 and the “Onset Sweetness” value is listed as 4.22. Also, in assay [1] (HT 3 ppm and/or HC 18 ppm), the “Overall Sweetness” value is given as 4.53, the Syrupy was 3.72 and the Tea is recorded as 4.39. For the same compound, in assay [1] (HT 5 ppm and/or HC 5 ppm), the Acidity turned out to be 4.06, the Balance is given as 3.94, the Bitter came out at 1.87 and the Complexity was determined as 3.87. Also, in assay [1] (HT 5 ppm and/or HC 5 ppm), the Fruity-Juicy is listed as 4.32, the Long lasting is given as 2.79, the Off-Notes was 0.58 and the “Onset Sweetness” value was 3.89. In assay [1] (HT 5 ppm and/or HC 5 ppm), the “Overall Sweetness” value is recorded as 4.07, the Syrupy is 3.59 and the Tea is given as 4.16. Further, in assay [2], the Acidity turned out to be 3.71, the Balance amounted to 3.20, the Bitter stood at 2.93 and the Complexity is 3.06. In assay [2], the Fruity-Juicy is given as 3.60, the Long lasting is given as 2.32, the Off-Notes turned out to be 1.85 and the “Onset Sweetness” value worked out at 3.14. Moreover, in assay [2], the “Overall Sweetness” value came to 3.39, the Syrupy came to 2.67 and the Tea was 4.30. In addition, the “ANOVA (sweetness factor)” value in assay [3] (setting [6]) is given as −2.4. The “ANOVA (sweetness factor)” value in assay [3] (setting [7]) is on record as −3.2. In assay [3] (setting [8]), the “ANOVA (sweetness factor)” value is reported as −3.3. Further, in assay [3] (setting [9]), the “ANOVA (sweetness factor)” value is recorded as −2.8. In assay [3] (setting [10]), the “ANOVA (sweetness factor)” value was −2.4. For the same compound, the “ANOVA (sweetness factor)” value in assay [3] (setting [11]) was −2.3. The “ANOVA (sweetness factor)” value in assay [3] (setting [12]) is on record as −2.6. Also, in assay [3] (setting [13]), the “ANOVA (sweetness factor)” value was −3.1. Further, the “ANOVA (sweetness factor)” value in assay [3] (setting [14]) was −3.6.

`COc1ccc(CCC(=O)c2ccccc2O)cc1O` [dihydrochalcone (1)]: the taste entry in assay [5] is “intensively sweet tasting”.

For the compound `COc1ccc(CCC(=O)c2c(O)cccc2O)cc1O` [dihydrochalcone (2)], in assay [5], the taste entry was “tasteless”.
